Assay results as given in patent US20250177425A1, “SAIKOSAPONIN C AS COMPOSITION FOR TREATING OR PREVENTING AGE-RELATED VASCULAR DISEASES INCLUDING ARTERIOSCLEROSIS” (AGINGTARGET, INC., priority 2022, published 2025).

What was measured:
Assay type in all cases: cell-based, human
HUVEC = assay: Mechanism study: SA-β-gal staining with NOS and Sirt1 inhibitors; conditions: Saikosaponin C 20 μM, 33 mM high glucose 72 hours
Procedure: (§1) Similar to Experimental Example 1, a high-fat diet evaluation system at the cellular level was established. Specifically, […], which are vascular endothelial cells, were pretreated with Saikosaponin C at a concentration of 20 μM for 2 hours, and then treated with high glucose at a concentration of 33 mM for 72 hours (for SA-β-gal staining) or 36 hours (for the analysis of enzyme activity of NOS and Sirt1). Then, SA-β-gal staining, NOS enzyme activity, and Sirt1 enzyme activity were analyzed. To analyze whether or not NOS and Sirt1 protein are involved in the anti-vascular aging effect of Saikosaponin C and the relationship between NOS and Sirt1 protein, L-NG-nitro arginine methyl ester (L-NAME) (5 mM), an inhibitor of NOS, and EX-527 (10 μM), an inhibitor of Sirt1 protein, were used. […] The senescence of vascular endothelial cells was assessed through intracellular SA-β-gal staining (FIG. 8A). The activities of NOS (FIG. 8B) and Sirt1 protein (FIG. 8C) were measured using the NOS Activity Assay Kit and the Sirt1 Activity Assay Kit, respectively.

NOS in HUVEC = assay: Mechanism study: NOS Activity Assay Kit with NOS and Sirt1 inhibitors; conditions: Saikosaponin C 20 μM, 33 mM high glucose 36 hours
Procedure: as §1

Sirt1 in HUVEC = assay: Mechanism study: Sirt1 Activity Assay Kit with NOS inhibitor; conditions: L-NAME 5 mM, Saikosaponin C 20 μM, 33 mM high glucose 36 hours
Procedure: as §1

| Compound | anti-vascular aging effect of Saikosaponin C (SA-β-gal) after inhibitor pretreatment (HUVEC; EX-527 10 μM) | Saikosaponin C-mediated recovery of the reduction in NOS activity caused by high glucose (NOS in HUVEC; EX-527 10 μM) | anti-vascular aging effect of Saikosaponin C (SA-β-gal) after inhibitor pretreatment (HUVEC; L-NAME 5 mM) | Saikosaponin C-mediated recovery of the reduction in NOS activity caused by high glucose (NOS in HUVEC; L-NAME 5 mM) | Saikosaponin C-mediated recovery of the reduction in Sirt1 activity caused by high glucose (Sirt1 in HUVEC) |
| --- | --- | --- | --- | --- | --- |
| NC(=O)C1CCCc2c1[nH]c1ccc(Cl)cc21 (centres unmarked) [EX-527] | significantly abolished | abolished | – | – | – |
| COC(=O)[C@@H](N)CCCNC(=N)N[N+](=O)[O-] [L-NAME, L-NG-nitro arginine methyl ester] | – | – | significantly abolished | abolished | did not abolish |
